# Assay results published in patent US11427543B2, “Compounds for targeting cancer stem cells” (The General Hospital Corporation, priority 2016, dated 2022).
# “Also recorded” adds a separate entry of the source.
# Experiments:
# G3BP2 = molecular target: T1, G3BP2 (Homo sapiens, UniProt Q9UN86); assay: Pull-down with compound-conjugated TURBOBEADS nanoparticles, Western blot with G3BP2 antibodies; type: binding; settings: nanoparticles bound to compound vs nanoparticles alone (control)
# T1 construct: protein lysates from three breast cancer cell lines incubated overnight with; endogenous in cells
# T1 sequence (Q9UN86 1-482): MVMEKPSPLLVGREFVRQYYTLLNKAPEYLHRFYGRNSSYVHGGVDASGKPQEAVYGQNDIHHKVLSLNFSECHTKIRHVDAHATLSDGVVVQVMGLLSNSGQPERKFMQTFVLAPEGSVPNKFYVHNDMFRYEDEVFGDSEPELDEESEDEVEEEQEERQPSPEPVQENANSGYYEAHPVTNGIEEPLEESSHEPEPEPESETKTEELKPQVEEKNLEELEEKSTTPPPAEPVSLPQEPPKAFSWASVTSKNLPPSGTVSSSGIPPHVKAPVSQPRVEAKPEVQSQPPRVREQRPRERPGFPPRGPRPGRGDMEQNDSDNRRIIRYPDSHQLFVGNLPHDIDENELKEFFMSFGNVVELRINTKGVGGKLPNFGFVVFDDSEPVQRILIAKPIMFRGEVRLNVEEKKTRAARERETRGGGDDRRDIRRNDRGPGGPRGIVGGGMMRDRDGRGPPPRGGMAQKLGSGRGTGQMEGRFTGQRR
# Description: Western blot analysis was performed with G3BP2 antibodies. Small molecule 2-hydroxy-N′-[1-(2-hydroxyphenyl)ethylidene]benzohydrazide was conjugated to TURBOBEADS® carboxy nanoparticles (TURBOBEADS®). TURBOBEADS® alone were used as a negative control.
# To determine which […] would bind to a test compound, TURBOBEADS® carboxy nanoparticles (TURBOBEADS®) were conjugated to 2-hydroxy-N′-[1-(2-hydroxyphenyl)ethylidene]benzohydrazide for 20 mi as per manufacturer's protocol, followed by overnight immunoprecipitation at 4° C. Proteins from metastatic cancer cells were pulled-down with using the test compound-nanoparticle conjugates and using unconjugated nanoparticles as a control.
# shRNA-expressing lentivirus was obtained for each pull-down protein and used to infect modified MDA-MB-231 cells. MTT assays were performed with shRNA stable cell lines and treated with non-lethal doses of paclitaxel. Only shRNA […] made cells sensitive to treatment with paclitaxel. To confirm that the test compound (2-hydroxy-N′-[1-(2-hydroxyphenyl)ethylidene]benzohydrazide) bound to G3B3P2, an immunoprecipitation with magnetic nanoparticles bound to 2-hydroxy-N′-[1-(2-hydroxyphenyl)ethylidene]benzohydrazide and nanoparticles alone (control) was carried out.
# PD-L1 = PD-L1 protein level by Western blot in cells under compressive (solid) stress; type: cell-based; settings: breast cancer (4T1) and glioblastoma cells (CT2A, GL261), solid stress 0.80 kPa, 1 μM, 24 hours
# Description: Cells were treated with 1 μM C108 for 24 hours and untreated cells were used as a control. β-actin was used as a loading control.
# To generate compressive stress, a device was used that included a piston of adjustable weights applying a constant force to cells growing on a transwell membrane with 0.8 μm-pores. This membrane permitted nutrient and oxygen diffusion but prevented cell transmigration. The connection between compressive stress and G3BP2 and PD-L1 protein levels was measured in 4T1 cells. When 80% cell confluence was reached on the membrane, the cells were compressed for 24 h using the in vitro compression device; a similar membrane containing 80% cell confluence in an uncompressed condition was used as the control. After 24-h compression, proteins were isolated from the control and compressed cells cultured in full-growth medium according to the standard protocol (see e.g., Roose et al. Microvasc Res, 2003, 66(3):204-12). […] To confirm this finding, Western blot analysis was performed with different breast cancer cells (MDA-MB-231 cells) with different of compressive stress, as shown in FIG. 15B).
# It was then hypothesized that compounds that bind to G3BP2 protein can repress PD-L1 in stressed cells. Breast cancer cells and glioblastoma cells in vitro were analyzed with 2-hydroxy-N′-[1-(2-hydroxyphenyl)ethylidene]benzohydrazide (i.e., C108) for 24 hours.
# ZEB1 = ZEB1 protein level by Western blot after compound treatment; type: cell-based; settings: MDA-MB-453 and BT-474 breast cancer cell lines, 3 μM, 24 hours
# Description: Immunoprecipitation was performed using Protein A Sepharose beads (GE Healthcare Lifesciences). Beads were washed, conjugated to the immunoprecipitating antibody for 2 hours, and immunoprecipitated overnight at 4° C. Western blots were performed using a standard protocol; using 4-10% gradient gel and Tris-glycine transfer buffer.
# A direct molecular link between epithelial-mesenchymal transition (EMT) and CSC plasticity in breast cancer has recently been shown; EMT effectors such as ZEB1 can co-induce both EMT and stem-like properties (see e.g., Chaffer et al., Cell, 2013, 154, 61-74). To understand if the G3BP2-mediated CSC state intersects with the EMT program, we the protein level of ZEB1 in G3BP2 knockdown and overexpression breast cancer cell lines was analyzed.
# IL-6 = IL-6 concentration by ELISA after compound treatment; type: cell-based; settings: 4T1 and E0771 breast cancer cell lines, 1 μM, 24 hours
# Description: After treatment, IL-6 concentration was decreased by about 5 to 7 fold.
# 4T1 and E0771 cells were grow in 96 well plate and were treated with compound for 24 hours (concentration of compound was 1 μM). Commercial ELISA kit (R&D systems) was used for measuring of IL-6 concentration. […] After treatment, IL-6 concentration was decreased by about 5 to 7 fold.
compound,measurement,setting,value
"CC(=NNC(=O)c1ccccc1O)c1ccccc1O [C108, 2-hydroxy-N′-[1-(2-hydroxyphenyl)ethylidene]benzohydrazide]",Binding of G3BP2 to the compound (Western blotting after immunoprecipitation with magnetic nanoparticles),G3BP2,binds
same,PD-L1 expression level,PD-L1,repressed; also recorded: diminished
same,ZEB1 inhibition,ZEB1,5-7 fold
same,Decrease in IL-6 concentration,IL-6,5 to 7 fold
